Laboratory results: patent US20240174648A1, “Small Molecule Compound” (Technoderma Medicines Pte Ltd, priority 2019, published 2024)
Blank lines part the entries; values can stand above or below the molecule they belong to.

Legend:
Format in all cases: biochemical
Tyk2 = Tyk2 (Homo sapiens, UniProt P29597); test: JAK kinase inhibition assay (EZ Reader, peptide substrate phosphorylation) - Tyk2; conditions: Tyk2 kinase 1 nM; 8 concentration points, max 10 μM
Summary of the method: (§1)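 Microfluidic mobility-shift detection of fluorescent peptide substrate phosphorylation, with JAK1 at 20 nM and JAK2, JAK3 and Tyk2 each at 1 nM final, in 20 mM HEPES pH 7.4, 10 mM MgCl2, 1 mM DTT. Reactions run at room temperature to 20–30% conversion, then EDTA-stopped. Compounds tested at 8 three-fold dilutions from 10 μM top final; IC50 from conversion curves.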

JAK1 = JAK1 (Homo sapiens, UniProt P23458); test: JAK kinase inhibition assay (EZ Reader, peptide substrate phosphorylation) - JAK1; conditions: JAK1 kinase 20 nM; 8 concentration points, max 10 μM
Summary of the method: as §1

JAK2 = JAK2 (Homo sapiens, UniProt O60674); test: JAK kinase inhibition assay (EZ Reader, peptide substrate phosphorylation) - JAK2; conditions: JAK2 kinase 1 nM; 8 concentration points, max 10 μM
Description: (§2) Assay for Identifying Inhibitory Effects of Compounds on JAK Kinases
(§3) Janus kinases (JAK), including JAK1, JAK2, JAK3 and Tyk2, transduce a cytokine-mediated signal through a JAK-STAT pathway. The kinases are 120-140 kDa in size and have 7 determined homology regions: JH1 to JH7. JH1 is an important region for enzymatic activity and has typical characteristics of tyrosine kinases. Phosphorylation of tyrosine leads to a change in the conformation of JAK protein, thereby promoting binding of substrate. The JAK-STAT system includes three main parts: receptors penetrating a cell membrane, Janus kinases binding to the receptors, and signal transducers and activators of transcription (STAT) for transmitting signals to a nucleus and DNA. When cytokines bind to receptors, JAK phosphorylates the receptors and attracts STAT proteins. The STAT proteins are also phosphorylated and combined with one another to form dimers. The dimers enter the nucleus and bind to DNA, thereby leading to gene transcription.
(§4) EZ Reader from PerkinElmer can be used to detect the phosphorylation of polypeptide substrates catalyzed by kinases. The device is based on microfluidic techniques, and can directly detect fluorescently labeled substrates and products. The separation step is achieved by controlling the pressure and electric field strength in the microfluidic chip. In kinase assays, a product conversion ratio is usually controlled to be 20-30%. A biological test is used to identify inhibitory effects of compounds on JAKs.
(§5) Compound powder was dissolved in DMSO, sealed and stored in a freezer under −20° C. The in-house compound Ref1 was used as a positive control for JAK1, JAK2 and Tyk2 tests, and Ref2 was used as a positive control for JAK3 tests.
(§6) S2.8. Assay buffer: 20 mM HEPES buffer, pH 7.4, 10 mM magnesium chloride, 0.01% bovine serum albumin BSA, 0.0005% Tween-20 and 1 mM dithiothreitol solution.
(§7) S2.9. Stop buffer: 180 mM HEPES buffer, 20 mM ethylenediaminetetraacetic acid and 0.2% coating reagent 3.
(§8) S2.10. Separation buffer: 100 mM HEPES buffer, 10 mM ethylenediaminetetraacetic acid, 0.0005% Tween 20, 0.1% coating reagent 3 and 1% dimethyl sulfoxide.
The compound was dissolved in dimethyl sulfoxide and diluted to 10 mM concentration, a certain volume of solution was taken and diluted to 0.6 mM concentration, 10 μL of the 0.6 mM dilution was added to a 384-well microplate, and then was diluted 3-fold with a total of 8 concentration points.
Positive control (HPE1): Ref1, final concentration: 10 μM […]
(§9) Negative control (ZPE): DMSO, final content: 1.6%
(§10) Compounds: maximum final concentration: 10 μM; 3-fold dilution, 8 concentration points and 2 duplicates.
(§11) S4.1. 250 nL of the compound was added to each well of the assay microplate by using ECHO, and centrifuged at 1000 rpm for 1 minute.
(§12) S4.2. 5 μL of the assay buffer was added and agitated for a few seconds to fully dissolve the compound.
(§13) S4.3. 5 μL of 3× substrate solution and 5 μL of 3× kinase solution were added and centrifuged at 800 rpm for 1 minute.
(§14) S4.4. Final concentrations of JAK1, JAK2, JAK3 and Tyk2 kinases in the reaction system were 20 nM, 1 nM, 1 nM and 1 nM respectively.
(§15) S4.5. Incubation at room temperature, where kinases had time differences, and different batches of kinases had time differences.
(§16) S4.6. When 20%-30% of the reaction completed, 15 μL of stop buffer was added to stop the reaction, and centrifuged at 1000 rpm for 2 minutes.
(§17) S4.7. The microplates were placed on EZ Reader for reading.
(§18) S4.8. Readings on EZ Reader were calculated by using a peak height, where product conversion ratio (%)=product/(product+substrate)*100.
(§19) 5. Data Processing: IC50 calculation
(§20) A graphing software Xlfit was used to form a concentration curve of the test compound, and an IC50 value was calculated.
(§21) “A” means “≥10 μM”; “B” means “≥1 μM and <10 μM”; “C” means “≥0.1 μM and <1 μM”; and “D” means “<0.1 μM”.

JAK3 = target: T1, JAK3 (Homo sapiens, UniProt P52333); test: JAK kinase inhibition assay (EZ Reader, peptide substrate phosphorylation) - JAK3; conditions: JAK3 kinase 1 nM; 8 concentration points, max 10 μM
T1 sequence (P52333 1-1124): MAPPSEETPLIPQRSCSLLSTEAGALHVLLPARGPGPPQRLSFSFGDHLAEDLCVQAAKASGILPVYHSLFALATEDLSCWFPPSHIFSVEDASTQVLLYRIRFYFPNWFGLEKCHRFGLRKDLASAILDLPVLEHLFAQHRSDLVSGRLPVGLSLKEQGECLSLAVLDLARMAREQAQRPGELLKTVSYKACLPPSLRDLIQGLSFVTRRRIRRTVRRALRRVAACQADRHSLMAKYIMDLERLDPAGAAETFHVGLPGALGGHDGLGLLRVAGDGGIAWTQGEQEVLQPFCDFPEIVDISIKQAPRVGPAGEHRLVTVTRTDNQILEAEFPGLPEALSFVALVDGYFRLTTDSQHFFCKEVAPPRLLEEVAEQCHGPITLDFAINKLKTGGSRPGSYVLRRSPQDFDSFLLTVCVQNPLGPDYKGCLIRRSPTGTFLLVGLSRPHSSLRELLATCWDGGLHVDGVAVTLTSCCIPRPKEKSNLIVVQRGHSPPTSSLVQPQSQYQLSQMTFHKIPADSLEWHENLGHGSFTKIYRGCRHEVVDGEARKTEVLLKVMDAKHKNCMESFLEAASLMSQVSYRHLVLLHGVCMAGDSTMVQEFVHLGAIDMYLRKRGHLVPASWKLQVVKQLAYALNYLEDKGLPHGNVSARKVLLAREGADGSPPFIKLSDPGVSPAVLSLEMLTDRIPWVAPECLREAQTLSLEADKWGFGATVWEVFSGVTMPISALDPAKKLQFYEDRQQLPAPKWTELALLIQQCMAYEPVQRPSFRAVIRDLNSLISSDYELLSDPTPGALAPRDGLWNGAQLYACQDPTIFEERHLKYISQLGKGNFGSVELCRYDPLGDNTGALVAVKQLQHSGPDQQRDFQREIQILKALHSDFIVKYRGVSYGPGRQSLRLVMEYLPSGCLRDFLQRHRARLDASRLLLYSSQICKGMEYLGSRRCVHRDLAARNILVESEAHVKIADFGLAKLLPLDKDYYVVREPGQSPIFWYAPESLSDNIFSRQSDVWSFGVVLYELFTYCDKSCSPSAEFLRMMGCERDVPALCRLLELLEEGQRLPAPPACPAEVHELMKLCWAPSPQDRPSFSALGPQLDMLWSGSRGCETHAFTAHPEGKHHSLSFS
Description: as §2, §3, §4, §5, §6, §7, §8
The compound was dissolved in dimethyl sulfoxide and diluted to 10 mM concentration, a certain volume of solution was taken and diluted to 0.6 mM concentration, 10 μL of the 0.6 mM dilution was added to a 384-well microplate, and then was diluted 3-fold with a total of 8 concentration points. […]
Positive control (HPE1): Ref2, final concentration: 10 μM
as §9, §10, §11, §12, §13, §14, §15, §16, §17, §18, §19, §20, §21

Sequence of JAK1 (P23458 whole entry): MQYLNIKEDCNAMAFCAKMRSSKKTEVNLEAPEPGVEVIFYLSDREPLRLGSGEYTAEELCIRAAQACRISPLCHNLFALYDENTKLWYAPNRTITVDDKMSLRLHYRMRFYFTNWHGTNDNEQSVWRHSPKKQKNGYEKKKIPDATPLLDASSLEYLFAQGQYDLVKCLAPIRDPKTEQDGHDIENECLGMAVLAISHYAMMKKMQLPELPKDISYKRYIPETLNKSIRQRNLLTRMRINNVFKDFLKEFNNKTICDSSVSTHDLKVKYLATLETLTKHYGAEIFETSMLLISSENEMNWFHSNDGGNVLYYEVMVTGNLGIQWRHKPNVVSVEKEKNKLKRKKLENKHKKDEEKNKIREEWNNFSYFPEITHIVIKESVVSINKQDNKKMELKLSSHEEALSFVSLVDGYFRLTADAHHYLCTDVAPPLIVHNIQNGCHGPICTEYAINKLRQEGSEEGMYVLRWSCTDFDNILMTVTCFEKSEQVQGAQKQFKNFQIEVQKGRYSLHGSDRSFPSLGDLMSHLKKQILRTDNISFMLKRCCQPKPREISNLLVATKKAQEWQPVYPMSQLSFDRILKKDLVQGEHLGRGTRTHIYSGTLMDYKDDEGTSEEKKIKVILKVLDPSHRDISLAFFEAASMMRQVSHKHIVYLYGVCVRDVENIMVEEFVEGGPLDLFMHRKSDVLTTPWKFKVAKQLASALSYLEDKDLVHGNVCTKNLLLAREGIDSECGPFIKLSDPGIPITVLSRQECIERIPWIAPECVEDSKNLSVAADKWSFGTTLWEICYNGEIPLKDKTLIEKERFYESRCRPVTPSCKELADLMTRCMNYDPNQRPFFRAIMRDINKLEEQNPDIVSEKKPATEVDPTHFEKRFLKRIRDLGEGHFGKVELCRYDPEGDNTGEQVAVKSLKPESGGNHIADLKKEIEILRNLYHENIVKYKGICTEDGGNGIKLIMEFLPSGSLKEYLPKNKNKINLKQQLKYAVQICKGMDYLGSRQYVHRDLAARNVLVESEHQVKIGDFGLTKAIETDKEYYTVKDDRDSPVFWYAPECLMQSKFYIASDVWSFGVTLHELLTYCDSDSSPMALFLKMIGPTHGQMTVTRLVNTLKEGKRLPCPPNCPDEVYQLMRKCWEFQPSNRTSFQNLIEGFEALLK
Sequence of Tyk2 (P29597 whole entry): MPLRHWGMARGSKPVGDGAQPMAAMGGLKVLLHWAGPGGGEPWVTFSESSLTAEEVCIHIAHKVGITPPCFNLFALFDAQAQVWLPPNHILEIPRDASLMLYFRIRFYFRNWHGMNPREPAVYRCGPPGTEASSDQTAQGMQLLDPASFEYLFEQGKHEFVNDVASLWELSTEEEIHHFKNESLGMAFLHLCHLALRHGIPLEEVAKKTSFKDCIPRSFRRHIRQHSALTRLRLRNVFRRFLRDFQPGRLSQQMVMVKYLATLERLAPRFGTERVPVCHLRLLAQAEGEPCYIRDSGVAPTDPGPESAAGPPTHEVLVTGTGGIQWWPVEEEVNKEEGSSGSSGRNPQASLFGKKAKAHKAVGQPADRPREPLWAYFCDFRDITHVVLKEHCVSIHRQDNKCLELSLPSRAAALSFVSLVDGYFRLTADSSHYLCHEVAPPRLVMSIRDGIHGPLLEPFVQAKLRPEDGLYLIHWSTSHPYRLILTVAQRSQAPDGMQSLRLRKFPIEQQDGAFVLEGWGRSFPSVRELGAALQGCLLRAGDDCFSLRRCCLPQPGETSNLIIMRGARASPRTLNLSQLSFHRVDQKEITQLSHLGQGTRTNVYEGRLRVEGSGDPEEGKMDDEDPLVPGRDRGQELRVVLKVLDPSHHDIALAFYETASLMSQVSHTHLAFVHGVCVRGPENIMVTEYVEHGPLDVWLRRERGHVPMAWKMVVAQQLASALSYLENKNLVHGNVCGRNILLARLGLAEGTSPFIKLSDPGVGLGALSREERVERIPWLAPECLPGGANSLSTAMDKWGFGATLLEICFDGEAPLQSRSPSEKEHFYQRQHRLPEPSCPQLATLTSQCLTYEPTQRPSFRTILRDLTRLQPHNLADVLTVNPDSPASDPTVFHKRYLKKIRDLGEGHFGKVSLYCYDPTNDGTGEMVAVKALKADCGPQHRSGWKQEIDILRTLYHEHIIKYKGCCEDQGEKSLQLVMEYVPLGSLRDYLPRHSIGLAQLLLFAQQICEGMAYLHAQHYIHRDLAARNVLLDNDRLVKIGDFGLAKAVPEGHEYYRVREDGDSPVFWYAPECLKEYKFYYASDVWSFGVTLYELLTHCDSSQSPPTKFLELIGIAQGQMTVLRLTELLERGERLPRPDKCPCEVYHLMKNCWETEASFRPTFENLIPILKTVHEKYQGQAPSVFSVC
Sequence of JAK2 (O60674 whole entry): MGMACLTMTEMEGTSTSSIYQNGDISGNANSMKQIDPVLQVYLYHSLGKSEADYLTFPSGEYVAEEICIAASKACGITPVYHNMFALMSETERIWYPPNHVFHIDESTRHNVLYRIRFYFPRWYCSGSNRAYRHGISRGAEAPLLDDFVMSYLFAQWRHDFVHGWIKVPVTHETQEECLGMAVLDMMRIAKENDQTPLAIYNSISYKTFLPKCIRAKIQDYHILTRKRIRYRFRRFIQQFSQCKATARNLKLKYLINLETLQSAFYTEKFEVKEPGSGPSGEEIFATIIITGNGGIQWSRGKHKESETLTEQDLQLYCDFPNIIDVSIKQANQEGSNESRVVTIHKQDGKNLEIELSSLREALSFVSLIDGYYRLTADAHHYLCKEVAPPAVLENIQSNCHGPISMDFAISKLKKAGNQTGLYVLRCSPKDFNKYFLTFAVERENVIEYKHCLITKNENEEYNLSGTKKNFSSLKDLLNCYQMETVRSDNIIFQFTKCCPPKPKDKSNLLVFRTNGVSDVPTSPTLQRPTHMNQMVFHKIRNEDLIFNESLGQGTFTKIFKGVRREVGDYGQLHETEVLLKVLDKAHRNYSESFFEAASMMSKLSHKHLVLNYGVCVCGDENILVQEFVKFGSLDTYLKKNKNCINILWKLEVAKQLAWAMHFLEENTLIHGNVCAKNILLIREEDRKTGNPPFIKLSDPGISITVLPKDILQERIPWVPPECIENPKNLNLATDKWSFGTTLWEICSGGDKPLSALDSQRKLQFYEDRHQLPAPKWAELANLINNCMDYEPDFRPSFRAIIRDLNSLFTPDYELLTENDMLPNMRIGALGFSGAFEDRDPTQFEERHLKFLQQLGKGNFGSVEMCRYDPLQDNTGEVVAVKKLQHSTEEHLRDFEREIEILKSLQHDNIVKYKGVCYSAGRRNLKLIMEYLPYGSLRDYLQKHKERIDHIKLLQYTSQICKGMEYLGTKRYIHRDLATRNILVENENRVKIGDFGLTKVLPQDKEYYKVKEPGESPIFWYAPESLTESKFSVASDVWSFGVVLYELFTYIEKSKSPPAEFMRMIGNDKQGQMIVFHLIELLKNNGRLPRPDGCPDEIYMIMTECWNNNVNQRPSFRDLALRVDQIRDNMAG

Structure (SMILES): Cn1cc(Nc2nccc(-c3ccc(NC(=O)C4CCC4)cc3)n2)cn1 [TDM-180813, N-(4-(2-((1-methyl-1H-pyrazol-4-yl)amino)pyrimidin-4-yl)phenyl)cyclobutanemethyl]
IC50 (Tyk2): 1 to 10 µM | IC50 (JAK1): 0.1 to 1 µM | IC50 (JAK2): 0.1 to 1 µM | IC50 (JAK3): ≥ 10 µM

Structure (SMILES): Cn1cc(Nc2nccc(-c3ccc(-n4nccc4C4CC4)cc3)n2)cn1 [TDM-180763, 4-(4-(5-cyclopropyl-1H-pyrazol-1-yl)phenyl)-N-(1-methyl-1H-pyrazol-4-yl)pyrimidin-2-amine]
IC50 (Tyk2): 1 to 10 µM | IC50 (JAK1): 10 µM | IC50 (JAK2): 1 to 10 µM | IC50 (JAK3): ≥ 10 µM

Structure (SMILES): Cn1cc(Nc2nccc(-c3ccc(C(=O)N4CCS(=O)(=O)CC4)nc3)n2)cn1 [TDM-180764, (1,1-sulfur dioxide) (5-(2-((1-methyl-1H-pyrazol-4-yl)amino)pyrimidin-4-yl)pyridin-2-yl)methanone]
IC50 (Tyk2): 1 to 10 µM | IC50 (JAK1): 1 to 10 µM | IC50 (JAK2): 1 to 10 µM | IC50 (JAK3): ≥ 10 µM

Next, values leading:

IC50 (Tyk2): 0.1 to 1 µM | IC50 (JAK1): 0.1 to 1 µM | IC50 (JAK2): 1 to 10 µM | IC50 (JAK3): > 10 µM
Structure (SMILES): Cc1cc(-c2ccnc(Nc3cnn(C)c3)n2)ccc1C(=O)NCC(F)(F)F [TDM-180780, 2-methyl-4-(2-((1-methyl-1H-pyrazol-4-yl)amino)pyrimidin-4-yl)-N-(2,2,2-trifluoroethyl)benzamide]

IC50 (Tyk2): < 0.1 µM | IC50 (JAK1): < 0.1 µM | IC50 (JAK2): < 0.1 µM | IC50 (JAK3): 0.1 to 1 µM
Structure (SMILES): Cn1cc(Nc2nccc(-c3ccc(NC(=O)C4CC4(F)F)nc3)n2)cn1 (centres unmarked) [TDM-180822, 2,2-difluoro-N-(5-(2-((1-methyl-1H-pyrazol-4-yl)amino)pyrimidin-4-yl)pyridin-2-yl)cyclopropane-1-carboxamide]
